Laboratory results published in US10208033B2, “β-carboline, dihydro-β-carboline and tetrahydro-β-carboline alkaloid derivatives and preparation methods same and use in aspects of preventing and treating plant viruses, fungicides and insecticides” (NANKAI UNIVERSITY, priority 2013, dated 2019).
Values after ≈ are worked out from the molar mass of the structure shown.

Tests used:
[1] = test system: tobacco mosaic virus (TMV); assay: Anti-TMV in vitro effect (half-leaf soaking); format: cell-based, tobacco mosaic virus (host Nicotiana tabacum L.cv.Xanthi NN)
[2] = test system: tobacco mosaic virus (TMV); assay: Anti-TMV in vivo inactivation; design: species or system tobacco mosaic virus (host Nicotiana tabacum L.cv.Xanthi NN)
[3] = test system: tobacco mosaic virus (TMV); assay: Anti-TMV in vivo therapeutic effect; design: species or system tobacco mosaic virus (host Nicotiana tabacum L.cv.Xanthi NN)
[4] = test system: tobacco mosaic virus (TMV); assay: Anti-TMV in vivo protective effect; design: species or system tobacco mosaic virus (host Nicotiana tabacum L.cv.Xanthi NN)
cucumber fusarium wilt = assay: Fungicidal (bactericidal) activity in vitro, PDA colony diameter; format: cell-based; conditions: 50 mg/kg
Cercospora arachidicola = assay: as above; format: cell-based; conditions: 50 mg/kg
Macrophoma kawatsukai = assay: as above; format: cell-based; conditions: 50 mg/kg
Alternaria solani = assay: as above; format: cell-based; conditions: 50 mg/kg
Fusarium graminearumt = assay: microbe, parasite or virus in culture; format: cell-based; conditions: for Bactericidal activity (%) Fusarium graminearumt: 50 mg/kg
potato late blight = assay: microbe, parasite or virus in culture; format: cell-based
Sclerotinia scleotiorum = assay: Fungicidal (bactericidal) activity in vitro, PDA colony diameter; format: cell-based; conditions: 50 mg/kg
Botrytis cinerea = assay: as above; format: cell-based; conditions: 50 mg/kg
Rhizoctonia solani = assay: as above; format: cell-based; conditions: 50 mg/kg
Phytophthora capsici = assay: as above; format: cell-based; conditions: 50 mg/kg
Fusarium fujikuroi = assay: as above; format: cell-based; conditions: 50 mg/kg
Rhizoctonia cereali = assay: as above; format: cell-based; conditions: 50 mg/kg
Bipolaria maydis = assay: organism not typed; format: cell-based; conditions: for Bactericidal activity (%) Bipolaria maydis: 50 mg/kg
[5] = test system: Colletotrichum orbiculare; assay: Fungicidal (bactericidal) activity in vitro, PDA colony diameter; format: cell-based; conditions: 50 mg/kg
armyworms = format: in vivo; conditions: concentration 600 mg/kg
cotton bollworms = assay: whole plant or invertebrate; conditions: for Cotton bollworm Mortality (%): concentration 600 mg/kg
Experimental: Experimental method of cotton bollworms: feed and drug mixing method: measure 3 mL of prepared solution and add it to about 27 g of newly prepared feed, thereby obtaining needed concentration through dilution by 10 times.

mosquito larvae = assay: whole plant or invertebrate; conditions: 24 h; for Mosquito larvae Mortality (%): concentration 10 mg/kg
Method in brief: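 Early fourth-instar Culex pipiens pallens larvae from an indoor colony, 10 per beaker, exposed to test compound at 5 ppm in water, diluted from a 1000 ppm acetone mother solution. Blank: water containing 0.5 mL test solvent.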

14 kinds of fungi = assay: Bactericidal activity, overall statements on Table 2; format: cell-based; conditions: Table 2, 50 mg/kg
Text: In vitro test method (Alternaria solani is taken for example. Alternatively, other fungi may be used): Inoculate Alternaria solani to PDA culture medium, culture it for 7 days, prepare […] bacteria plates from colony edge by a puncher, inoculate […] and drug-free PDA culture media, culture them for 4 days, measure colony diameter, compare with the control group and calculate the inhibition percentage of the drug.

corn borers [6] = conditions: concentration 600 mg/kg
HL60 = conditions: cited from earlier work
corn borers [7] = assay: whole plant or invertebrate; conditions: read-out: Corn borer Mortality (%)
culex pipiens larvae = conditions: in vivo; cited from earlier work
Lipaphis erysimi = conditions: in vivo; cited from earlier work
[8] = target: monoamine oxidase (MAO-A) (Homo sapiens, UniProt P21397); conditions: cited from earlier work
Chain of monoamine oxidase (MAO-A) (P21397 whole entry, species assumed): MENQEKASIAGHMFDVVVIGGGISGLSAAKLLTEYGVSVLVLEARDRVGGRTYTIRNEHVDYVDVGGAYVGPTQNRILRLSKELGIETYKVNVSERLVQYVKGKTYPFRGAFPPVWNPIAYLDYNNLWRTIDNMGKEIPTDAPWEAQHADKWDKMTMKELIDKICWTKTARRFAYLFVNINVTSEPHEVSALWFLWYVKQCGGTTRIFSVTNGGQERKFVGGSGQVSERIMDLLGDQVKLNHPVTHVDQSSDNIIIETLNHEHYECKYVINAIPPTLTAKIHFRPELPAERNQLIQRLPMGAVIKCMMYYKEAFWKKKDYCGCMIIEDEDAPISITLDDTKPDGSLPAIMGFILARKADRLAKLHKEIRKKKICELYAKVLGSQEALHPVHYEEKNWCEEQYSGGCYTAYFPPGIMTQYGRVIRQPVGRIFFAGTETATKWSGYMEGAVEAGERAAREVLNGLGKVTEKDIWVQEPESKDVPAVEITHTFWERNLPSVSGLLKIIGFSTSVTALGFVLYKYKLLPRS

C[C@@H]1N[C@H](C(=O)NN=Cc2ccc(C(C)(C)C)cc2)Cc2c1[nH]c1ccccc21 [Ic-2, (1S, 3S)—N′-(4-tert-butylbenzylidene)-1-methyl-2,3,4,9-tetrahydropyridino [3,4-b] indol-3-formylhydrazine]
Relative inhibition rate (%) In vitro activity ([1]; treatment dose 100 μg/mL): 17.6% | Relative inhibition rate (%) In vitro activity ([1]; treatment dose 500 μg/mL): 52.4% | Relative inhibition rate (%) In vivo inactivation ([2]; treatment dose 100 μg/mL): 13.3% | Relative inhibition rate (%) In vivo inactivation ([2]; treatment dose 500 μg/mL): 50.3% | Relative inhibition rate (%) In vivo therapy ([3]; treatment dose 100 μg/mL): 18.2% | Relative inhibition rate (%) In vivo therapy ([3]; treatment dose 500 μg/mL): 47% | Relative inhibition rate (%) In vivo protection ([4]; treatment dose 100 μg/mL): 21.7% | Relative inhibition rate (%) In vivo protection ([4]; treatment dose 500 μg/mL): 53.8% | Bactericidal activity (%) Cucumber fusarium wilt (cucumber fusarium wilt): 65.4% | Bactericidal activity (%) Cercospora arachidicola (Cercospora arachidicola): 82.4% | Bactericidal activity (%) Macrophoma kawatsukai (Macrophoma kawatsukai): 97.2% | Bactericidal activity (%) Alternaria solani (Alternaria solani): 70.0% | Bactericidal activity (%) Fusarium graminearumt (Fusarium graminearumt): 41.4% | Bactericidal activity (%) potato late blight (potato late blight): 76.0% | Bactericidal activity (%) Sclerotinia scleotiorum (Sclerotinia scleotiorum): 94.1% | Bactericidal activity (%) Botrytis cinerea (Botrytis cinerea): 86.4% | Bactericidal activity (%) Rhizoctonia solani (Rhizoctonia solani): 88.2% | Bactericidal activity (%) Phytophthora capsici (Phytophthora capsici): 73.7% | Bactericidal activity (%) Fusarium fujikuroi (Fusarium fujikuroi): 57.1% | Bactericidal activity (%) Rhizoctonia cereali (Rhizoctonia cereali): 98.0% | Bactericidal activity (%) Bipolaria maydis (Bipolaria maydis): 84.0% | Bactericidal activity (%) Colletotrichum orbiculare [5]: 77.8% | Armyworm Mortality (%) (armyworms): 10% | Cotton bollworm Mortality (%) (cotton bollworms): 30% | Mosquito larvae Mortality (%) (mosquito larvae): 20% | bactericidal activity against fungi (in words) (14 kinds of fungi): very good bactericidal activity against various kinds of fungi | Corn borer Mortality (%) (corn borers [6]): 5%

COc1ccc2c(c1)[nH]c1c(C)nccc12 [Harmine]
inhibition at 100 µg/mL ([1]; Tobacco mosaic virus, treatment dose 100 μg/mL, read-out: Relative inhibition rate (%) In vitro activity): 20% | inhibition at 500 µg/mL ([1]; Tobacco mosaic virus, treatment dose 500 μg/mL, read-out: Relative inhibition rate (%) In vitro activity): 44.6% | inhibition at 100 µg/mL ([2]; Tobacco mosaic virus, treatment dose 100 μg/mL, read-out: Relative inhibition rate (%) In vivo inactivation): 11.4% | inhibition at 500 µg/mL ([2]; Tobacco mosaic virus, treatment dose 500 μg/mL, read-out: Relative inhibition rate (%) In vivo inactivation): 40.5% | inhibition at 100 µg/mL ([3]; Tobacco mosaic virus, treatment dose 100 μg/mL, read-out: Relative inhibition rate (%) In vivo therapy): 15.8% | inhibition at 500 µg/mL ([3]; Tobacco mosaic virus, treatment dose 500 μg/mL, read-out: Relative inhibition rate (%) In vivo therapy): 38.6% | inhibition at 100 µg/mL ([4]; Tobacco mosaic virus, treatment dose 100 μg/mL, read-out: Relative inhibition rate (%) In vivo protection): 16.3% | inhibition at 500 µg/mL ([4]; Tobacco mosaic virus, treatment dose 500 μg/mL, read-out: Relative inhibition rate (%) In vivo protection): 42.4% | inhibition of growth at 50 mg/kg (cucumber fusarium wilt; Fusarium, 96 h): 28.6% | inhibition of growth at 50 mg/kg (Cercospora arachidicola; Mycosphaerella arachidis, 96 h): 57.1% | inhibition at 50 mg/kg (Macrophoma kawatsukai): 35.3% | inhibition of growth at 50 mg/kg (Alternaria solani; Alternaria solani, 96 h): 83.3% | inhibition of growth at 50 mg/kg (Fusarium graminearumt; Fusarium, 96 h, read-out: Bactericidal activity (%) Fusarium graminearumt): 92.9% | inhibition of growth at 50 mg/kg (potato late blight; Phytophthora infestans, 96 h, read-out: Bactericidal activity (%) potato late blight): 35% | inhibition of growth at 50 mg/kg (Sclerotinia scleotiorum; Sclerotinia, 96 h): 48% | inhibition of growth at 50 mg/kg (Botrytis cinerea; Botrytis cinerea, 96 h): 59.1% | inhibition of growth at 50 mg/kg (Rhizoctonia solani; Rhizoctonia solani, 96 h): 21.4% | inhibition of growth at 50 mg/kg (Phytophthora capsici; Phytophthora capsici, 96 h): 60.6% | inhibition of growth at 50 mg/kg (Fusarium fujikuroi; Fusarium fujikuroi, 96 h): 57.1% | inhibition of growth at 50 mg/kg (Rhizoctonia cereali; Rhizoctonia, 96 h): 71.9% | inhibition at 50 mg/kg (Bipolaria maydis; read-out: Bactericidal activity (%) Bipolaria maydis): 31.6% | inhibition of growth at 50 mg/kg ([5]; Colletotrichum orbiculare, 96 h): 57.1% | Armyworm Mortality (%) (armyworms): 20% | mortality at 600 mg/kg (cotton bollworms; Helicoverpa armigera, in Gossypium hirsutum, read-out: Cotton bollworm Mortality (%)): 15% | mortality at 10 mg/kg (mosquito larvae; Culex pipiens, read-out: Mosquito larvae Mortality (%)): 45% | cytotoxicity to leukemia cell line HL60 (HL60): shows cytotoxicity | mortality at 600 mg/kg (corn borers [7]): 15%

COC(=O)C1Cc2c([nH]c3ccccc23)C(c2ccccc2)N1 (stereo not shown)
LC50 against culex pipiens larvae (culex pipiens larvae): 23.98 µg/mL (≈ 78.3 µM) | LC50 against Lipaphis erysimi (Lipaphis erysimi): 68.05 µg/mL (≈ 222 µM)

COC(=O)c1cc2c([nH]c3ccccc32)c(-c2ccccc2)n1
LC50 against culex pipiens larvae (culex pipiens larvae): 20.82 µg/mL (≈ 68.9 µM) | LC50 against Lipaphis erysimi (Lipaphis erysimi): 53.16 µg/mL (≈ 176 µM)

CC[C@@H]1N[C@H](C(=O)O)Cc2c1[nH]c1ccccc21 [Ib-3, (1S, 3S)-1-ethyl-2,3,4,9-tetrahydropyridino [3,4-b] indol-3-formic acid]
melting point: 277 to 280 °C

Cc1nc(C=O)cc2c1[nH]c1ccccc12 [Ia-13, 1-methyl-pyridino [3,4-b] indol-3-formaldehyde]
melting point: 194 to 196 °C

C[C@@H]1N[C@H](C(=O)NN=Cc2ccc(Cl)c(Cl)c2)Cc2c1[nH]c1ccccc21 [Ic-7, (1S, 3S)—N′-(3,4-dichlorobenzylidene)-1-methyl-2,3,4,9-tetrahydropyridino [3,4-b] indol-3-formylhydrazine]
Relative inhibition rate (%) In vitro activity ([1]; treatment dose 100 μg/mL): 15.1% | Relative inhibition rate (%) In vitro activity ([1]; treatment dose 500 μg/mL): 50.7% | Relative inhibition rate (%) In vivo inactivation ([2]; treatment dose 100 μg/mL): 20.4% | Relative inhibition rate (%) In vivo inactivation ([2]; treatment dose 500 μg/mL): 55.2% | Relative inhibition rate (%) In vivo therapy ([3]; treatment dose 100 μg/mL): 23.5% | Relative inhibition rate (%) In vivo therapy ([3]; treatment dose 500 μg/mL): 48.9% | Relative inhibition rate (%) In vivo protection ([4]; treatment dose 100 μg/mL): 14.8% | Relative inhibition rate (%) In vivo protection ([4]; treatment dose 500 μg/mL): 48.1% | Bactericidal activity (%) Cucumber fusarium wilt (cucumber fusarium wilt): 77.3% | Bactericidal activity (%) Cercospora arachidicola (Cercospora arachidicola): 72.7% | Bactericidal activity (%) Macrophoma kawatsukai (Macrophoma kawatsukai): 97.0% | Bactericidal activity (%) Alternaria solani (Alternaria solani): 71.4% | Bactericidal activity (%) Fusarium graminearumt (Fusarium graminearumt): 76.9% | Bactericidal activity (%) potato late blight (potato late blight): 65.2% | Bactericidal activity (%) Sclerotinia scleotiorum (Sclerotinia scleotiorum): 84.6% | Bactericidal activity (%) Botrytis cinerea (Botrytis cinerea): 80.6% | Bactericidal activity (%) Rhizoctonia solani (Rhizoctonia solani): 62.5% | Bactericidal activity (%) Phytophthora capsici (Phytophthora capsici): 84.8% | Bactericidal activity (%) Fusarium fujikuroi (Fusarium fujikuroi): 70.6% | Bactericidal activity (%) Rhizoctonia cereali (Rhizoctonia cereali): 97.3% | Bactericidal activity (%) Bipolaria maydis (Bipolaria maydis): 80.0% | Bactericidal activity (%) Colletotrichum orbiculare [5]: 80.0% | Armyworm Mortality (%) (armyworms): 5% | Cotton bollworm Mortality (%) (cotton bollworms): 30% | Mosquito larvae Mortality (%) (mosquito larvae): 10% | bactericidal activity against fungi (in words) (14 kinds of fungi): very good bactericidal activity against various kinds of fungi | Corn borer Mortality (%) (corn borers [6]): 5%

COc1ccc2c3c([nH]c2c1)C(C)=NCC3 [Harmaline]
inhibition of monoamine oxidase (MAO-A) [8]: reversible inhibitor
